Results: ChEMBL document CHEMBL5029185, “Discovery of Novel Polycyclic Heterocyclic Derivatives from Evodiamine for the Potential Treatment of Triple-Negative Breast Cancer” (J Med Chem, 2021)
The source made the active and inactive calls. The rule behind the calls is not given here.

Tests used:
[1] = test system: MDA-MB-231; experiment: Induction of apoptosis in human MDA-MB-231 cells assessed as increase in cytochrome c expression at 0.1 to 0.4 uM measured after 48 hrs by Western blot analysis; type: functional, cell-based; conditions: dose 0.1-0.4 µM
[2] = test system: MDA-MB-231; experiment: Induction of mitochondrial membrane disruption in human MDA-MB-231 cells assessed as mitochondrial dysfunction at 0.2 uM measured after 48 hrs by JC-1 staining based flow cytometry (reference value: 3%); type: functional
[3] = test system: LoVo; experiment: Antiproliferative activity against human LoVo cells assessed as inhibition rate incubated for 72 hrs by MTT assay; type: functional, cell-based
[4] = test system: MDA-MB-231; experiment: Effect on Akt expression in human MDA-MB-231 cells at 0.4 uM measured after 48 hrs by Western blot analysis; type: functional, cell-based
[5] = test system: H22; experiment: Antiproliferative activity against mouse H22 cells assessed as inhibition rate incubated for 72 hrs by MTT assay; type: functional, cell-based; conditions: H22, 72 h
[6] = test system: MDA-MB-231; experiment: Induction cell cycle arrest in human MDA-MB-231 cells assessed as increase in CDK2 expression at 0.4 uM measured after 48 hrs by Western blot analysis; type: functional, cell-based
[7] = test system: MDA-MB-231; experiment: Inhibition of PI3K phosphorylation in human MDA-MB-231 cells at 0.4 uM measured after 48 hrs by Western blot analysis; type: cell-based
[8] = Selectivity index, ratio of IC50 for human MCF-10A cells to IC50 for human MDA-MB-231 cells; conditions: MCF-10A cells versus MDA-MB-231 cells
[9] = test system: Breast carcinoma cell; experiment: Antitumour activity against human TNBC breast carcinoma cell tissue xenografted PDTX SCID mouse model assessed as reduction in Ki67 expression level at 5 to 20 mg/kg treated for 7 days by immunohistochemical analysis; type: functional, organism-based; conditions: dose 5-20 mg/kg, time 7.0 day
[10] = test system: HCT-116; experiment: Antiproliferative activity against human HCT-116 cells assessed as inhibition rate incubated for 72 hrs by MTT assay; type: functional, cell-based; conditions: HCT-116, 72 h
[11] = Ratio of IC50 for antiproliferative activity against human MDA-MB-231 cells transfected with siRNA-Top1 to IC50 for antiproliferative activity against human MDA-MB-231 cells transfected with siRNA-Ctrl assessed as cell viability by MTT assay; type: functional
[12] = test system: MDA-MB-231; experiment: Induction cell cycle arrest in human MDA-MB-231 cells assessed as accumulation at S phase at 0.1 uM measured after 48 hrs by PI staining based flow cytometry (reference value: 36%); type: functional
[13] = test system: A549; experiment: Antiproliferative activity against human A549 cells assessed as inhibition rate incubated for 72 hrs by MTT assay; type: functional, cell-based; conditions: A549, 72 h
[14] = test system: MDA-MB-231; experiment: Induction cell cycle arrest in human MDA-MB-231 cells assessed as accumulation at G1 phase at 0.1 uM measured after 48 hrs by PI staining based flow cytometry (reference value: 53.7%); type: functional
[15] = test system: HepG2; experiment: Antiproliferative activity against human HepG2 cells assessed as inhibition rate incubated for 72 hrs by MTT assay; type: functional, cell-based; conditions: HepG2, 72 h
[16] = test system: MDA-MB-435; experiment: Antiproliferative activity against human MDA-MB-435 cells assessed as inhibition rate incubated for 72 hrs by MTT assay; type: functional, cell-based; conditions: MDA-MB-435, 72 h
[17] = test system: 4T1; experiment: Antiproliferative activity against mouse 4T1 cells assessed as inhibition rate incubated for 72 hrs by MTT assay; type: functional, cell-based; conditions: 4T1, 72 h
[18] = test system: MDA-MB-231; experiment: Induction of mitochondrial membrane disruption in human MDA-MB-231 cells assessed as mitochondrial dysfunction at 0.4 uM measured after 48 hrs by JC-1 staining based flow cytometry (reference value: 3%); type: functional
[19] = test system: MDA-MB-231; experiment: Antiproliferative activity against human MDA-MB-231 cells assessed as inhibition rate incubated for 72 hrs by MTT assay; type: functional, cell-based; conditions: MDA-MB-231, 72 h
[20] = Toxicity in PDTX SCID mouse model at 5 to 20 mg/kg measured upto 7 days; type: organism-based; conditions: in vivo, 168 h, dose 5-20 mg/kg, time <=7 day
[21] = test system: MDA-MB-231; experiment: Induction cell cycle arrest in human MDA-MB-231 cells assessed as increase in p21 expression at 0.4 uM measured after 48 hrs by Western blot analysis; type: functional, cell-based
[22] = test system: MDA-MB-231; experiment: Antiproliferative activity against human MDA-MB-231 cells assessed as inhibition rate at 10 uM incubated for 72 hrs by MTT assay; type: functional
[23] = test system: Breast carcinoma cell; experiment: Antitumour activity against human TNBC breast carcinoma cell tissue xenografted PDTX SCID mouse model assessed as tumor cell necrosis […] at 5 to 20 mg/kg treated for 7 days; type: functional, organism-based; conditions: dose 5-20 mg/kg, time 7.0 day
[24] = test system: MDA-MB-231; experiment: Induction cell cycle arrest in human MDA-MB-231 cells assessed as increase in p53 expression at 0.4 uM measured after 48 hrs by Western blot analysis; type: functional, cell-based
[25] = test system: MCF7; experiment: Antiproliferative activity against human MCF7 cells assessed as inhibition rate incubated for 72 hrs by MTT assay; type: functional, cell-based; conditions: MCF7, 72 h
[26] = test system: MDA-MB-231; experiment: Induction cell cycle arrest in human MDA-MB-231 cells assessed as accumulation at G2 phase at 0.4 uM measured after 48 hrs by PI staining based flow cytometry (reference value: 10.2%); type: functional
[27] = test system: MDA-MB-231; experiment: Induction of apoptosis in human MDA-MB-231 cells assessed as decrease in Bcl-2 expression at 0.1 to 0.4 uM measured after 48 hrs by Western blot analysis; type: functional, cell-based; conditions: dose 0.1-0.4 µM
[28] = test system: MCF-10A; experiment: cells; type: ADME, cell-based; conditions: Homo sapiens, 72 h
Description: Antiproliferative activity against human MCF-10A cells assessed as inhibition rate incubated for 72 hrs by MTT assay

IC50 [3]: 7310 nM
IC50 [10]: 760 nM
IC50 [13]: 5240 nM
IC50 [15]: 4650 nM
IC50 [16]: 420 nM
IC50 [17]: 730 nM
IC50 [19]: 360 nM
IC50 [25]: 620 nM
Compound: O=C1c2cc(Cl)ccc2OC2c3oc4ccc(O)cc4c3CCN12 (stereo not drawn)
Activity [1]: Active
Activity [2]: 18.5%
Activity [4]: inactive
IC50 [5]: 1020 nM
Activity [6]: Active
inhibition [7]: Active
selectivity ratio [8]: 18.8
Activity [9]: Active
Ratio IC50 [11]: 12.7
Activity [12]: 24.7%
Activity [14]: 68.1%
Activity [18]: 25%
Activity [20]: Non-Toxic
Activity [21]: Active
inhibition at 10 µM [22]: 84.3%
Activity [23]: Active
Activity [24]: Active
Activity [26]: 6.9%
Activity [27]: Active
IC50 [28]: 6760 nM
